{"source": "patent US20060167271A1", "about": "“Purified compounds that inhibit intracellular alphax4/paxillin binding” (priority 2002, published 2006)", "key": {"[1]": {"biological_target": "T1, Paxillin/α4 binding (immobilized His-tagged α4 tail, soluble recombinant Paxillin) (Homo sapiens, UniProt P13612+P49023)", "T1 construct": "The design and production of recombinant cytoplasmic α4 tail polypeptide have been described; made in house; host or cells: E. coli BL21(DE3)pLysS for the α4 tail", "T1 sequence (P13612 1002-1032 limits assumed)": "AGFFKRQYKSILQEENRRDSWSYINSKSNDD", "T1 sequence (P49023 1-557 isoform P49023-2)": "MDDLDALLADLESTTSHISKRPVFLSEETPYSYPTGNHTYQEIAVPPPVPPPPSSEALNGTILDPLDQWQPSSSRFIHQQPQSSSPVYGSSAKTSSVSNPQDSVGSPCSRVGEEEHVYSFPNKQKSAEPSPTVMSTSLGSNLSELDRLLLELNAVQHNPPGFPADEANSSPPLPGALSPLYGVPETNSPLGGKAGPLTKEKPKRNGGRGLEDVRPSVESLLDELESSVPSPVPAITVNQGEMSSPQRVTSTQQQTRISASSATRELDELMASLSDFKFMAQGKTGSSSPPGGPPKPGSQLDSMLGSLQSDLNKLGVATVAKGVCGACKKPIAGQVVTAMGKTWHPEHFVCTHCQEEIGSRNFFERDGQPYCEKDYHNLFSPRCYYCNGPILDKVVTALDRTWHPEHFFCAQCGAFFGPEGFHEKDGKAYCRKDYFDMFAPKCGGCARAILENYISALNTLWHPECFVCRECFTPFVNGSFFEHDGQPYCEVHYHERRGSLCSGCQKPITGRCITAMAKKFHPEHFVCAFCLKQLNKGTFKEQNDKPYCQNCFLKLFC", "assay": "Immobilized Paxillin/α4 binding assay (ELISA)", "conditions": "for pIC50: read-out: IC50 of Paxillin/α4 binding inhibition", "procedure": "FIG. 4 is a schematic representation of the high throughput screening by ELIZA used herein in which the α4 tail is coated onto a Ni-NTA microtiter plate (a), Paxillin is permitted to bind to α4 (b), first antibody is added (anti-Paxillin) (c), second antibody is added (HRP-conjugated, anti-mouse) (d), and Pax/α4 binding efficiency is measured by detection at 490 nm (e). For binding inhibition, compounds were added during Paxillin incubation (step b). […], zero % inhibition was measured from incubation with Paxillin and no compound.\nInitially, roughly 40,000 compounds were screened in approximately 2000 wells (most as a mixture of 10 compounds, 50 μM total concentration) in an ELISA assay using an immobilized His-tagged α4 tail [Pfaff et al. (1998) J. Biol. Chem. 273, 6104-6109] and examining the binding inhibition of soluble recombinant Paxillin [Salgia et al. (1995) J. Biol. Chem. 270, 5039-5047] (FIG. 3).\nPaxillin/α4 binding assays were performed as follows. Ni-NTA HisSorb microtiter strips (Qiagen) were coated overnight at 4° C. with purified α4 tail integrin (5 μg/ml, 100 μl per well) in PBS buffer (8 mM Na2HPO4, 1.5 mM KH2PO4, 135 mM NaCl, 2.5 mM KCl [pH 7.4]) supplemented with heat-denatured BSA (0.2%). The plates were washed three times with PBS buffer to remove unbound integrin, blocked with 150 μl of heat-denatured 1% BSA (denatured at 85° C. for 30 minutes and supplemented with 0.05% sodium azide) for 1 hour at room temperature, and washed again three times with PBS buffer.\nPurified Paxillin in binding buffer (10% DMSO, 0.2% BSA in PBS buffer) was added to the wells at a concentration of 5 μg/ml in the presence or absence of compounds (1 mM DMSO stock solutions). […] As a control, blocked wells without integrin were examined for binding. After 1 hour at room temperature, the wells were washed three times with PBS buffer, incubated with first antibody (12CA5 ascites, 1/10000 in PBS plus 1% BSA, 100 μL) for 1 hour at room temperature, then with second antibody (100 μl HRP-conjugated anti-mouse [Biosource] in PBS buffer plus 1% BSA) for 1 hour at room temperature. Each well was treated with 50 μl of substrate solution (4 mg o-phenylenediamine, 4 μl of 30% H2O2, 80 mM citrate phosphate [pH 5]) and stopped after 10 minutes at room temperature with 50 μl H2SO4 (2 N). Binding was quantitated on a vmax kinetic microplate reader (Molecular Devices) at 490 nm. Zero % inhibition control was measured with Paxillin and no compound, and 100% inhibition control (background) was measured with no Paxillin and no compound. Each well was duplicated and percent inhibition was averaged."}, "[2]": {"biological_target": "T2, binding of Paxillin to the α4 tail protein (Homo sapiens, UniProt P13612+P49023)", "T2 construct": "The design and production of recombinant cytoplasmic α4 tail polypeptide have been described; made in house; host or cells: E. coli BL21(DE3)pLysS for the α4 tail", "T2 sequence (P13612 1002-1032 limits assumed)": "as the sequence (P13612 1002-1032 limits assumed) above", "T2 sequence (P49023 1-557 isoform P49023-2)": "as the sequence (P49023 1-557 isoform P49023-2) above", "assay": "Integrin tail affinity chromatography binding study", "procedure": "FIG. 6 in two parts as 6A and 6B includes results of an affinity chromatography binding study (6A) and scanning densitometry results shown in graphical form for the bound Paxillin (6B). In 6A, recombinant HA-tagged GST-Paxillin (100 nM) was added to Ni^2+-charged resin loaded with α4 tail protein in the absence (lane a) or presence of compound 11-A7B7C7 (lane b, 5 μM; lane c, 25 μM; lane d, 100 μM) or compound 11-A6B6C6 (lane e, 25 μM). Bound protein was collected and separated by SDS-PAGE under reducing conditions, transferred to a nitrocellulose membrane, and stained with HA-tag-specific antibody, 12CA5. In 6B, bound Paxillin was quantified by scanning densitometry of those immunoblots using the NIH Image program. The depicted results are representative from two studies.\nIn order to confirm the effectiveness and selectivity of Compound 11-A7B7C7 at inhibiting Paxillin/α4 binding, a series of binding studies was conducted using affinity chromatography techniques [Liu S et al. (1999) Nature 402, 676-681; and Pfaff et al. (1998) J. Biol. Chem. 273, 6104-6109]. […] Bound protein was collected and separated by electrophoresis and analyzed by immunoblotting.\nIntegrin tail affinity chromatography was performed as described [Rose (2001) J. Immunol. 167, 2824-2830]. […]"}, "[3]": {"system": "integrin α4β1-mediated migration of Jurkat T cells", "assay": "Cell migration assay (modified Boyden chamber)", "assay_type": "cell-based", "conditions": "Homo sapiens", "procedure": "Cell migration was assayed in a modified Boyden chamber assay system as previously described [Rose et al. (2001) J. Immunol. 167, 2824-2830]. […] 167, 2824-2830]. Transwells (Costar, Corning) polycarbonate membranes containing 3.0 μm pores were coated with 5 μg/ml recombinant soluble VCAM-1. Membranes were blocked with 2% BSA in PBS for 30 minutes at room temperature. 2.0×10^5 cells in RPMI-1640 containing the indicated concentration of the compound and a final concentration of 0.1% DMSO were added to the top chamber. SDF-1α (R&D Systems) at a final concentration of 15 ng/ml was added to the bottom chamber. Cells were permitted to migrate for 4 hours at 37° C. Cells in the bottom chamber were enumerated with a hemocytometer, and data are expressed as percent inhibition of migration. Depicted are the mean and range of duplicate determinations from one of two studies with similar results.\nThe Jurkat E6-1 T leukemic cell line was purchased from American Type Culture Collection (ATCC), Rockville, Md. and cultured in RPMI-1640 (Biowhitaker Inc, Walkersville, Md.) supplemented with 10% FCS (Biowhitaker Inc), 1% glutamine, 50 units/ml penicillin, and 50 μg/ml streptomycin (Sigma Chemical, St Louis, Mo.).\nCell migration was assayed in a modified Boyden chamber assay system. […]"}, "[4]": {"conditions": "read-out: Inhibition of Pax/α4 binding (% at 1 μM)"}}, "note": "pIC50: −log10 of the molar value. Like-named read-outs stand apart in the source and are kept apart here."}
{"compound": "COC(=O)c1cc2c3c(ccc2[nH]1)N(C(=O)c1cc2c4c(ccc2[nH]1)NCC4)CC3", "note": "[Compound 21, H-CDPI2-OMe]", "values": [{"measurement": "Inhibition of Pax/α4 binding (% at 1 μM)", "setting": "[1]; 1 μM", "value": 14, "unit": "%"}]}
{"compound": "DMABA-CDPI-OMe [Compound 19]", "values": [{"measurement": "Inhibition of Pax/α4 binding (% at 1 μM)", "setting": "[1]; 1 μM", "value": "−3", "unit": "%"}]}
{"compound": "DMABA-CDPI2-OMe [Compound 22]", "values": [{"measurement": "Inhibition of Pax/α4 binding (% at 1 μM)", "setting": "[1]; 1 μM", "value": 36, "unit": "%"}]}
{"compound": "COC(=O)c1cc2c3c(ccc2[nH]1)N(C(=O)c1cc2c4c(ccc2[nH]1)N(C(=O)c1cc2c5c(ccc2[nH]1)NCC5)CC4)CC3", "note": "[Compound 25, H-CDPI3-OMe]", "values": [{"measurement": "pIC50", "setting": "[1]", "value": 6.52}, {"measurement": "inhibition at 1 µM", "setting": "[1]; [4]", "value": 73, "unit": "%"}]}
{"compound": "O=C(O)c1cc2c3c(ccc2[nH]1)NCC3", "note": "[Compound 17, H-CDPI-OH]", "values": [{"measurement": "Inhibition of Pax/α4 binding (% at 1 μM)", "setting": "[1]; 1 μM", "value": 11, "unit": "%"}]}
{"compound": "COC(=O)c1cc2c3c(ccc2[nH]1)N(C(=O)OC(C)(C)C)CC3", "note": "[Compound 15, Boc-CDPI-OMe]", "values": [{"measurement": "Inhibition of Pax/α4 binding (% at 1 μM)", "setting": "[1]; 1 μM", "value": 3, "unit": "%"}]}
{"compound": "COC(=O)c1cc2c3c(ccc2[nH]1)N(C(=O)c1cc2c4c(ccc2[nH]1)N(C(=O)OC(C)(C)C)CC4)CC3", "note": "[Compound 20, Boc-CDPI2-OMe]", "values": [{"measurement": "Inhibition of Pax/α4 binding (% at 1 μM)", "setting": "[1]; 1 μM", "value": 13, "unit": "%"}]}
{"compound": "CC(C)(C)OC(=O)N1CCc2c1ccc1[nH]c(C(=O)O)cc21", "note": "[Compound 18, Boc-CDPI-OH]", "values": [{"measurement": "Inhibition of Pax/α4 binding (% at 1 μM)", "setting": "[1]; 1 μM", "value": 6, "unit": "%"}]}
{"compound": "COC(=O)c1cc2c3c(ccc2[nH]1)N(C(=O)c1cc2c4c(ccc2[nH]1)N(C(=O)c1cc2c5c(ccc2[nH]1)N(C(=O)CCCN(C)C)CC5)CC4)CC3", "note": "[Compound 11-A7B7C7, DMABA-CDPI3-OMe]", "values": [{"measurement": "Binding of Paxillin to the α4 tail protein", "setting": "[2]; GST-Paxillin 100 nM, immunoblot", "value": "markedly reduced"}, {"measurement": "Quantification of bound Paxillin (scanning densitometry)", "setting": "[2]; concentrations as low as 5 μM", "value": "near background levels"}, {"measurement": "inhibition at 15 µM", "setting": "[3]; Jurkat, highest possible dose, 15 μM, read-out: Maximum inhibition of migration", "value": "~70", "unit": "%"}, {"measurement": "pIC50", "setting": "[3]; Jurkat T cells, VCAM-1 coated membranes, SDF-1α, 4 hours, read-out: IC50 of inhibition of α4β1-mediated cell migration", "value": "~5.00"}, {"measurement": "inhibition at 1 µM", "setting": "[1]; 1 μM, read-out: Inhibition (%) of α4/Paxillin Binding by Deconvoluted Samples of 11-AxByCz", "value": 76, "unit": "%"}, {"measurement": "pIC50", "setting": "[1]", "value": 6.52}, {"measurement": "inhibition at 1 µM", "setting": "[1]; [4]", "value": 78, "unit": "%"}]}
{"compound": "COC(=O)c1cc2c3c(ccc2[nH]1)NCC3", "note": "[Compound 16, H-CDPI-OMe]", "values": [{"measurement": "Inhibition of Pax/α4 binding (% at 1 μM)", "setting": "[1]; 1 μM", "value": 19, "unit": "%"}]}
{"compound": "O=C(O)c1cc2c3c(ccc2[nH]1)N(C(=O)c1cc2c4c(ccc2[nH]1)NCC4)CC3", "note": "[Compound 23, H-CDPI2-OH]", "values": [{"measurement": "Inhibition of Pax/α4 binding (% at 1 μM)", "setting": "[1]; 1 μM", "value": 27, "unit": "%"}]}
{"compound": "O=C(O)c1cc2c3c(ccc2[nH]1)N(C(=O)c1cc2c4c(ccc2[nH]1)N(C(=O)c1cc2c5c(ccc2[nH]1)NCC5)CC4)CC3", "note": "[Compound 26, H-CDPI3-OH]", "values": [{"measurement": "Paxillin/α4 binding inhibition, result in words", "setting": "[1]", "value": "only a slight reduction in potency"}, {"measurement": "inhibition at 1 µM", "setting": "[1]; [4]", "value": 68, "unit": "%"}, {"measurement": "IC50", "setting": "[1]; read-out: inhibition of Pax/α4 binding (IC50 in μM)", "value": 0.5, "unit": "µM"}]}
{"compound": "Boc-CDPI3-OMe [Compound 24]", "values": [{"measurement": "Paxillin/α4 binding inhibition, result in words", "setting": "[1]", "value": "substantial loss of activity"}, {"measurement": "Inhibition of Pax/α4 binding (% at 1 μM)", "setting": "[1]; 1 μM", "value": 25, "unit": "%"}]}
